Key:
[1] = test system: TEL-BLK transformed Ba/F3 cells; test: cells; conditions: Mus musculus, BaF3, read-out: GI50, TEL-BLK
CLK1 = CLK1 (Homo sapiens (Human), UniProt P49759); test: DiscoverX binding assay; conditions: read-out: % inhibition at 1 uM, CLK1
Source text: (§2) Screening hits are identified by measuring the amount of protein captured in test versus control samples by using a quantitative, precise, and ultra-sensitive qPCR method that detects the associated DNA label.

ITK [2] = molecular target: T1, ITK (Homo sapiens (Human), UniProt Q08881); test: DiscoverX binding assay
Source text: as §2

DYRK1A = DYRK1A (Homo sapiens (Human), UniProt Q13627); test: Kinase panel at 1 uM (Table 9); assay type: binding; conditions: read-out: % inhibition at 1 uM, DYRK1A
Source text: as §2

CSNK2A2 = CSNK2A2 (Homo sapiens (Human), UniProt P19784); test: Kinase panel at 1 uM (Table 9); assay type: binding; conditions: read-out: % inhibition at 1 uM, CSNK2A2
Source text: as §2

MEK5 = MEK5 (Homo sapiens (Human), UniProt Q13163); test: Kinase panel at 1 uM (Table 9); assay type: binding; conditions: read-out: % inhibition at 1 uM, MEK5
Source text: as §2

CLK2 = CLK2 (Homo sapiens (Human), UniProt P49760); test: DiscoverX binding assay; conditions: read-out: % inhibition at 1 uM, CLK2
Source text: as §2

C4-2 cells = test: cells; conditions: C4-2, read-out: GI50, C4-2
Description: (§3) Data were normalized to control group (DMSO) and represented by the mean of at least two independent measurement with standard error <20%. GI50 were calculated using Prism 5.0 (GraphPad Software, San Diego, Calif.).

OCI-Ly19 cells = test: Cell proliferation analysis for WM and lymphoma cell lines (CellTiter-Glo); assay type: cell-based; conditions: Homo sapiens, 72 hours
Description: (§4) Various cell lines were used including Waldenström's macroglobulinemia (WM) cell lines (BCWM.1, MWCL-1, RPCI-WM1) and B-cell lymphoma cell lines (OCI-Ly3, Ramos, OCI-Ly19). Cells were seeded into 384 well plates with the EL406 Combination Washer Dispenser (BioTek Instruments, Inc.) and inhibitor compounds were injected into the cells culture media with the JANUS Automated Workstation (PerkinElmer Inc.).

[3] = test system: TEL-JAK1 transformed Ba/F3 cells; test: cells; conditions: Mus musculus, BaF3, read-out: GI50, TEL-JAK1
TEC = TEC (Homo sapiens (Human), UniProt P42680); test: DiscoverX binding assay
Source text: as §2

BLK = BLK (Homo sapiens (Human), UniProt P51451); test: DiscoverX binding assay
Source text: as §2

JNK3 = JNK3 (Homo sapiens (Human), UniProt P53779); test: Kinase panel at 1 uM (Table 9); assay type: binding; conditions: read-out: % inhibition at 1 uM, JNK3
Source text: as §2

RV1 xenograft = RV1 xenograft growth; conditions: over 2 weeks, in vivo treatment; FIG. 19
JNK1 = JNK1 (Homo sapiens (Human), UniProt P45983); test: Kinase panel at 1 uM (Table 9); assay type: binding; conditions: read-out: % inhibition at 1 uM, JNK1
Source text: as §2

BMX [4] = molecular target: T2, BMX (Homo sapiens (Human), UniProt P51813); test: Invitrogen Select Screening in vitro kinase assay; assay type: biochemical
Source text: (§5) The in vitro activity of compounds of Formula (I) and (II) in inhibiting BMX and other kinases were obtained using an Invitrogen Select Screening assay as known in the art.

BMX (C496S) = BMX (C496S) (Homo sapiens (Human), UniProt P51813, C496S); test: IP kinase assay, BMX autophosphorylation; assay type: biochemical; conditions: FIG. 15A
Source text: (§1) FIG. 15 confirms that the potency of the BMX inhibitors is due to covalent binding to cysteine 496.

wild-type (WT) BMX = wild-type (WT) BMX (Homo sapiens (Human), UniProt P51813); test: IP kinase assay, BMX autophosphorylation; assay type: biochemical; conditions: FIG. 15
Source text: as §1

EGFR(T790M) = EGFR(T790M) (Homo sapiens (Human), UniProt P00533, T790M); test: DiscoverX binding assay
Source text: as §2

Ramos cells = test: Cell proliferation analysis for WM and lymphoma cell lines (CellTiter-Glo); assay type: cell-based; conditions: Homo sapiens, 72 hours
Description: as §4

PIK3CA(I800L) = PIK3CA(I800L) (Homo sapiens (Human), UniProt P42336, I800L); test: Kinase panel at 1 uM (Table 9); assay type: binding; conditions: read-out: % inhibition at 1 uM, PIK3CA(I800L)
Source text: as §2

OCI-Ly3 cells = test: Cell proliferation analysis for WM and lymphoma cell lines (CellTiter-Glo); assay type: cell-based; conditions: Homo sapiens, 72 hours
Description: as §4

DYRK2 = DYRK2 (Homo sapiens (Human), UniProt Q92630); test: Kinase panel at 1 uM (Table 9); assay type: binding; conditions: read-out: % inhibition at 1 uM, DYRK2
Source text: as §2

ITK [5] = molecular target: T1, ITK; test: Invitrogen Select Screening in vitro kinase assay; assay type: biochemical
Source text: as §5

VACP cells = test: cells; conditions: read-out: GI50, VACP
Description: as §3

WT-Ba/F3 cells = test: cells; conditions: Mus musculus, BaF3, read-out: GI50, WT-Ba/F3
DU-145 cells = test: cells; conditions: Homo sapiens, DU-145, read-out: GI50, DU-145
Description: as §3

RV-1 cells = test: Anti-proliferation assay for prostate cancer cells (CellTiter-Glo); assay type: cell-based
Description: as §3

[6] = test system: TEL-Abl transformed Ba/F3 cells; test: cells; conditions: Mus musculus, BaF3, read-out: GI50, TEL-Abl
PIK4CB = PIK4CB (Homo sapiens (Human), UniProt Q9UBF8); test: Kinase panel at 1 uM (Table 9); assay type: binding; conditions: read-out: % inhibition at 1 uM, PIK4CB
Source text: as §2

BMX [7] = molecular target: T2, BMX; test: DiscoverX binding assay
Source text: as §2

PIK3CG = PIK3CG (Homo sapiens (Human), UniProt P48736); test: Kinase panel at 1 uM (Table 9); assay type: binding; conditions: read-out: % inhibition at 1 uM, PIK3CG
Source text: as §2

mTOR = mTOR (Homo sapiens (Human), UniProt P42345); test: DiscoverX binding assay; conditions: read-out: % inhibition at 1 uM, MTOR
Source text: as §2

[8] = test system: RV-1 cells expressing wild-type BMX or C496S mutant; conditions: FIG. 16
IRAK3 = IRAK3 (Homo sapiens (Human), UniProt Q9Y616); test: Kinase panel at 1 uM (Table 9); assay type: binding; conditions: read-out: % inhibition at 1 uM, IRAK3
Source text: as §2

PIP5K2C = PIP5K2C (Homo sapiens (Human), UniProt Q8TBX8); test: Kinase panel at 1 uM (Table 9); assay type: binding; conditions: read-out: % inhibition at 1 uM, PIP5K2C
Source text: as §2

Structure (SMILES): C=CC(=O)Nc1cc(-n2c(=O)ccc3cnc4ccc(-c5ccc(NS(C)(=O)=O)cc5)cc4c32)ccc1C [I-14]
- GI50 [1]: 3.64 µM
- inhibition at 1 µM (CLK1): 95%
- Percent Control, ITK (ITK [2]): 52%
- inhibition at 1 µM (DYRK1A): 100%
- inhibition at 1 µM (CSNK2A2): 100%
- inhibition at 1 µM (MEK5): 100%
- inhibition at 1 µM (CLK2): 100%
- GI50 (C4-2 cells): > 10 µM
- EC50 (OCI-Ly19 cells): 0.9 µM
- GI50 [3]: 4.92 µM
- Percent Control, TEC (TEC): 27%
- Percent Control, BLK (BLK; DiscoverX binding): 40%
- inhibition at 1 µM (BLK; read-out: % inhibition at 1 uM, BLK): 40%
- inhibition at 1 µM (JNK3): 100%
- RV1 xenograft growth (RV1 xenograft): decreased
- inhibition at 1 µM (JNK1): 93%
- IC50 (BMX [4]): 0.00799 µM
- concentration inhibiting autophosphorylation of BMX (C496S) (BMX (C496S)): > 10,000 nM
- concentration inhibiting autophosphorylation of wild-type BMX (wild-type (WT) BMX): 10 to 100 nM
- Percent Control, EGFR(T790M) (EGFR(T790M); DiscoverX binding): 2.1%
- inhibition at 1 µM (EGFR(T790M); read-out: % inhibition at 1 uM, EGFR(T790M)): 11%
- EC50 (Ramos cells): > 20 µM
- inhibition at 1 µM (PIK3CA(I800L)): 46%
- EC50 (OCI-Ly3 cells): > 20 µM
- inhibition at 1 µM (DYRK2): 100%
- IC50 (ITK [5]): 5.25 µM
- GI50 (VACP cells): 2.46 µM
- GI50 (WT-Ba/F3 cells): > 10 µM
- GI50 (DU-145 cells): 4.38 µM
- GI50 (RV-1 cells; RV-1): 2.54 µM
- IC50 (RV-1 cells; RV-1, 120 h, 5 day incubation): 2.53 µM
- GI50 [6]: > 10 µM
- inhibition at 1 µM (PIK4CB): 79%
- Percent Control, BMX (BMX [7]): 29%
- inhibition at 1 µM (PIK3CG): 2.8%
- inhibition at 1 µM (mTOR): 45%
- growth inhibition of cells expressing wild-type BMX versus C496S mutant [8]: more potently inhibits growth of cells expressing the wild-type BMX than the C496S mutant
- inhibition at 1 µM (IRAK3): 73%
- inhibition at 1 µM (PIP5K2C): 5.6%
